From patent US20100048604A1, “Ligands for Aldoketoreductases” (priority 2004, published 2010)

Experiments:
Assay in all cases: Enzymatic screening of probes 1-7 against a panel of oxidoreductases
Format in all cases: biochemical
Conditions in all cases: 12 hour incubation, 30-50 μM substrate, pH 7, 250 μM NAD(P)H
[1] = molecular target: T1, horse liver alcohol dehydrogenase (HLAD) (Equus caballus, UniProt P00327)
T1 construct: purchased Sigma (St. Louis, Mo.) Lot Number 51K7520 (catalogue number not given)
Method: (§1) FIG. 4. Screening of probes 1-7 against a panel of oxidoreductases Percentage fluorescence increase after 12 hour incubation of 30-50 μM substrate, 100 mM phosphate buffer (pH 7), 250 μM NAD(P)H, and 100 nM enzyme. Substrates 1, 2, 3, and 4 monitored at λexc=340 nm, λem=440 nm. Substrates 5, 6, and 7 monitored at λexc=440 nm, λem=510 nm. 3HSD, 3α-hydroxysteroid dehydrogenase (PT, Pseudomonas testosteroni), HLAD, horse liver alcohol dehydrogenase, TBAD, Thermoanaerobium brockii alcohol dehydrogenase, BS 12HSD, Bacillus sp. 12α-hydroxysteroid dehydrogenase, ABAD, amyloid-β binding alcohol dehydrogenase (human), GDH, glycerol dehydrogenase, YADH, yeast alcohol dehydrogenase, LDH, lactate dehydrogenase.
(§2) Probes 1-7 (see FIG. 3) were subsequently tested against a collection of dehydrogenases in the presence of NAD(P)H; the extent of reduction was assessed by the measurement of fluorescence intensity at the emission maximum of each probe (FIG. 4). This assay included enzymes from two major oxidoreductase superfamilies, the short chain alcohol dehydrogenases (SDR) and the aldo-keto reductases (AKR), ranging from bacterial to mammalian and human enzymes.
(§3) Horse Liver alcohol dehydrogenase (Lot Number 51K7520), Thermoanaerobium brockii NADP^+ dependent alcohol dehydrogenase (Lot Number 033K4093), Pseudomonas testosteroni 3α-hydroxysteroid dehydrogenase (Lot Number 053K8624), and Bacillus sphaericus 12α-hydroxysteroid dehydrogenase (Lot Number 70K16621) were purchased from Sigma (St. Louis, Mo.). Yeast alcohol dehydrogenase (Lot Number 93122920), glycerol dehydrogenase (Lot Number 92110122), (D)-lactate dehydrogenase (Lot Number 92419236), (L)-lactate dehydrogenase (Lot Number 92801821), NAD^+, NADP^+, NADH, and NADPH were purchased from Roche. Enzyme activity was confirmed by compliance to supplier's quality control assays prior to usage. Rat and human 3α-hydroxysteroid dehydrogenases were provided by Professor Trevor Penning (University of Pennsylvania School of Medicine) and human amyloid-β peptide binding alcohol dehydrogenase was supplied by Professor Shi Du Yan (Columbia University School for Physicians and Surgeons).
(§4) Enzymatic assays were performed in triplicate on selected fluorogenic substrates according to the following protocol. To each well of a FALCON 96-well black flat bottom plate was added (1) 40 μL of 500 mM potassium phosphate buffer pH 7.0, (2) 113 μL of double deionized water, (3) 25 μL of 2 mM NADH (except for Pseudomonas testosteroni 3α-hydroxysteroid dehydrogenase, rat 3α-hydroxysteroid dehydrogenase, and Thermoanaerobium brockii NADP^+ dependent alcohol dehydrogenase, in which cases 2 mM of NADPH was used), (4) 2 μL of a 3-5 mM solution of substrate in DMSO, and (5) 20 μL of a 40-50 μg/mL solution of enzyme. Reaction volumes were mixed thoroughly after addition of cofactor, substrate, and enzyme and allowed to react 12 hours at 25° C. Scanning of the 96-well plate was performed by the MicroMax 384 connected to a Jobin Yvon Fluorolog through F-3000 fiber optic cables.
(§5) Initial Screening with Fluorogenic Substrates: Screening of the first fluorogenic substrates for enzymatic activity has been described above. In short, 200 μL enzymatic assay volumes containing 100 mM potassium phosphate buffer (pH 7), 250 μM NAD(P)H cofactor, and 30-50 μM of ketones (1-7) were incubated for 12 hours on a black FALCON 96-well plate. Formation of the alcohol reduction product was determined by reading the fluorescence arising from excitation at the corresponding alcohol at either 340 nm (27-30) or 440 nm (31-33).

[2] = molecular target: T2, rat 3α-hydroxysteroid dehydrogenase (Rattus norvegicus, UniProt P23457)
T2 construct: gift of Professor Trevor Penning (University of Pennsylvania School of Medicine)
T2 sequence (P23457 1-322): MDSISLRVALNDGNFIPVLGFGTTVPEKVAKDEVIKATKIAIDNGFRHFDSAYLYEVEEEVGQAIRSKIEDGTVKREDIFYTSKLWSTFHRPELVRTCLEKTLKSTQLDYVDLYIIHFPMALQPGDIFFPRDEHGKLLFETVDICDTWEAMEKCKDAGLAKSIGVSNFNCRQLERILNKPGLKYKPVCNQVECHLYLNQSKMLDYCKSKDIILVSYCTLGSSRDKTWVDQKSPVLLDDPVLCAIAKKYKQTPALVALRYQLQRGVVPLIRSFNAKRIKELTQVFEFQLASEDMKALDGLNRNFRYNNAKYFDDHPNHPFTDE
Method: as §1, §2, §3, §4, §5

[3] = molecular target: T3, Pseudomonas testosteroni 3α-hydroxysteroid dehydrogenase (Comamonas testosteroni, UniProt P80702)
T3 construct: purchased Sigma (St. Louis, Mo.) Lot Number 053K8624 (catalogue number not given)
Method: as §1, §2, §3, §4, §5

[4] = molecular target: T4, Thermoanaerobium brockii alcohol dehydrogenase (TBAD) (Thermoanaerobacter brockii, UniProt P14941)
T4 construct: purchased Sigma (St. Louis, Mo.) Lot Number 033K4093 (catalogue number not given)
T4 sequence (P14941 1-352): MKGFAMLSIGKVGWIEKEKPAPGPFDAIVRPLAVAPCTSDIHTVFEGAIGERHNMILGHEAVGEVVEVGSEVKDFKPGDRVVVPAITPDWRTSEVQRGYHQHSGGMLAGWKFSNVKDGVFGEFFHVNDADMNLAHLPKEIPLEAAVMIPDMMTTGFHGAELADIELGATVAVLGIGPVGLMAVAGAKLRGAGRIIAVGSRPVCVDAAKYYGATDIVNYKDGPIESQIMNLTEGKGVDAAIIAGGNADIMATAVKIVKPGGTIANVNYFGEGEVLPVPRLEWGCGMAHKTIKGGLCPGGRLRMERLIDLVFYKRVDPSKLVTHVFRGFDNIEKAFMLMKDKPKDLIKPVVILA
Method: as §1, §2, §3, §4, §5

T3 sequence (P80702 whole entry): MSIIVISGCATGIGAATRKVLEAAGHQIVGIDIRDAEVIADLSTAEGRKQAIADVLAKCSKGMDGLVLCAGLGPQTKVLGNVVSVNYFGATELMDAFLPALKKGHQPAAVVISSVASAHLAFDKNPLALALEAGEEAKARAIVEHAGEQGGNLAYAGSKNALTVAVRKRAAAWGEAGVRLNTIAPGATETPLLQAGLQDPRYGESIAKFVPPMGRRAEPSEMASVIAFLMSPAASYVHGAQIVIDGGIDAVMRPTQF
T1 sequence (P00327 2-375 limits assumed): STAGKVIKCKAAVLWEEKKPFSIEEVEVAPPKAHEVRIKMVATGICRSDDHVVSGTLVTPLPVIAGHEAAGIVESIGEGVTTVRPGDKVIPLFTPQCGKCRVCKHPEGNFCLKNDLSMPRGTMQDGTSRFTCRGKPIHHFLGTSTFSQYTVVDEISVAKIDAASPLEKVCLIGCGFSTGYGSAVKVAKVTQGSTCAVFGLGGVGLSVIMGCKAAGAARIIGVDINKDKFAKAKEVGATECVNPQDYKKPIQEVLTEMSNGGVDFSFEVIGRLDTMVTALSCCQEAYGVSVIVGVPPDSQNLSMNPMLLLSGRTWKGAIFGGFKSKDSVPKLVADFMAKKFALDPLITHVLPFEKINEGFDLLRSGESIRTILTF

## CC(=O)c1cc(=O)oc2c3c4c(cc12)CCCN4CCC3 [compound 5, 8-Acetyl-2,3,5,6-tetrahydro-1H,4H-11-oxa-3a-aza-benzo[de]anthracen-10-one]
[1]
  reduction of probe (fluorescence increase): not acceptant
[2]
  reduction of probe (fluorescence increase): converted rapidly and selectively
[3]
  reduction of probe (fluorescence increase): converted rapidly and selectively
[4]
  reduction of probe (fluorescence increase): not acceptant
